This assay relates to endogenous cellular STAT1 (phosphorylated at Tyr701) in NCI-H1373 cells. Nature of the assay: Phospho-STAT1 (Tyr701) LANCE Ultra TR-FRET Detection Assay. Type of assay: cell-based. Conditions: Homo sapiens, NCI-H1373, 48 h, phospho-STAT1 (Tyr701) induction, read-out: NH1373 pSTAT1 EC50. (In general: In TR-FRET formats the signal depends on donor and acceptor labels being close together.)

Turning to `C[C@@H](CCCn1ccc2cc(-c3ncc(C(F)(F)F)c(N4CCS(=O)(=O)C4)n3)c(F)cc2c1=O)Nc1cn[nH]c(=O)c1C(F)(F)F` [Example 317, (S)-6-(4-(1,1-dioxidothiazolidin-3-yl)-5-(trifluoromethyl)pyrimidin-2-yl)-7-fluoro-2-(4-((6-oxo-5-(trifluoromethyl)-1,6-dihydropyridazin-4-yl)amino)pentyl)isoquinolin-1(2H)-one], the EC50 – broadly, the concentration needed to bring the measured effect to its halfway point – amounted to 45.1 nM. Consider `O=c1[nH]ncc(N[C@H](CCCn2ccc3cc(-c4nc5ccccn5n4)c(F)cc3c2=O)COC(F)F)c1C(F)(F)F` [Example 489, (R)-6-([1,2,4]triazolo[1,5-a]pyridin-2-yl)-2-(5-(difluoromethoxy)-4-((6-oxo-5-(trifluoromethyl)-1,6-dihydropyridazin-4-yl)amino)pentyl)-7-fluoroisoquinolin-1(2H)-one], for which the EC50 came to 0.51 nM.

Regarding `O=c1[nH]ncc(N[C@H]2CCC[C@@H](Cn3ccc4cc(-c5ncc(Cl)cn5)c(F)cc4c3=O)C2)c1C(F)(F)F` [Example 248, 6-(5-chloropyrimidin-2-yl)-7-fluoro-2-(((1R,3S)-3-((6-oxo-5-(trifluoromethyl)-1,6-dihydropyridazin-4-yl)amino)cyclohexyl)methyl)isoquinolin-1(2H)-one], the 50% effective concentration (EC50) stood at 3.44 nM. For `C[C@@H](CCCn1cnc2cc(-c3ncc(F)c(N)n3)c(F)cc2c1=O)Nc1cn[nH]c(=O)c1C(F)(F)F` [Example 67, 7-(4-amino-5-fluoro-pyrimidin-2-yl)-6-fluoro-3-[(4S)-4-[[6-oxo-5-(trifluoromethyl)-1H-pyridazin-4-yl]amino]pentyl]quinazolin-4-one] the value was 218 nM; for `[2H]C([2H])([2H])OC[C@@H](CCCn1ccc2cc(-c3ncc(C(F)(F)F)c(N)n3)c(F)cc2c1=O)Nc1cn[nH]c(=O)c1C(F)(F)F` [Example 427, 6-[4-amino-5-(trifluoromethyl)pyrimidin-2-yl]-7-fluoro-2-[(4R)-4-[[6-oxo-5-(trifluoromethyl)-1H-pyridazin-4-yl]amino]-5-(trideuteriomethoxy)pentyl]isoquinolin-1-one], 2.87 nM; for `Cc1nnc([C@@H](CCCn2ccc3cc(-c4ncc(C(F)(F)F)cn4)c(F)cc3c2=O)Nc2cn[nH]c(=O)c2C(F)(F)F)o1` [Example 169, 7-fluoro-2-[(4R)-4-(5-methyl-1,3,4-oxadiazol-2-yl)-4-[[6-oxo-5-(trifluoromethyl)-1H-pyridazin-4-yl]amino]butyl]-6-[5-(trifluoromethyl)pyrimidin-2-yl]isoquinolin-1-one], 61.9 nM. For the compound `COc1cc(-c2cc3ccn(CCC[C@H](C)Nc4cn[nH]c(=O)c4C(F)(F)F)c(=O)c3cc2F)ncc1C(F)(F)F` [Example 331, (S)-7-fluoro-6-(4-methoxy-5-(trifluoromethyl)pyridin-2-yl)-2-(4-((6-oxo-5-(trifluoromethyl)-1,6-dihydropyridazin-4-yl)amino)pentyl)isoquinolin-1(2H)-one], the EC50 was 78.1 nM.

As for `O=c1[nH]ncc(O[C@H]2CCC[C@@H](Cn3cnc4cc(-c5ncc(C(F)F)cn5)c(F)cc4c3=O)C2)c1C(F)(F)F` [Example 457, 7-(5-(difluoromethyl)pyrimidin-2-yl)-6-fluoro-3-(((1R,3S)-3-((6-oxo-5-(trifluoromethyl)-1,6-dihydropyridazin-4-yl)oxy)cyclohexyl)methyl)quinazolin-4(3H)-one], the EC50 came to 10.6 nM. For `O=c1[nH]ncc(N[C@H](CCCn2cnc3cc(-c4ccc(C(F)F)cn4)c(F)cc3c2=O)COC(F)F)c1C(F)(F)F` [Example 402, (R)-3-(5-(difluoromethoxy)-4-((6-oxo-5-(trifluoromethyl)-1,6-dihydropyridazin-4-yl)amino)pentyl)-7-(5-(difluoromethyl)pyridin-2-yl)-6-fluoroquinazolin-4(3H)-one] the value was 3.13 nM; for `CCNc1cnc(-c2cc3ccn(C[C@@H]4CCC[C@H](Nc5cn[nH]c(=O)c5C(F)(F)F)C4)c(=O)c3cc2F)cn1` [Example 277, 6-(5-(ethylamino)pyrazin-2-yl)-7-fluoro-2-(((1R,3S)-3-((6-oxo-5-(trifluoromethyl)-1,6-dihydropyridazin-4-yl)amino)cyclohexyl)methyl)isoquinolin-1(2H)-one], 348 nM; for `COc1cnc(-c2cc3ncn(CCC[C@H](C)Nc4cn[nH]c(=O)c4C(F)(F)F)c(=O)c3cc2F)nc1N1CCC1` [Example 188, (S)-7-(4-(azetidin-1-yl)-5-methoxypyrimidin-2-yl)-6-fluoro-3-(4-((6-oxo-5-(trifluoromethyl)-1,6-dihydropyridazin-4-yl)amino)pentyl)quinazolin-4(3H)-one], 42 nM. As for `CC[C@@H](CCCn1ccc2cc(-c3ncc(C(F)(F)F)c(N)n3)c(F)cc2c1=O)Nc1cn[nH]c(=O)c1C(F)(F)F` [Example 71, 6-[4-amino-5-(trifluoromethyl)pyrimidin-2-yl]-7-fluoro-2-[(4S)-4-[[6-oxo-5-(trifluoromethyl)-1H-pyridazin-4-yl]amino]hexyl]isoquinolin-1-one], the figure is 5.94 nM; as for `Nc1nc(-c2cc3ncn(CCC[C@H](COC(F)F)Nc4cn[nH]c(=O)c4C(F)(F)F)c(=O)c3cc2F)ncc1Cl` [Example 426, (R)-7-(4-amino-5-chloropyrimidin-2-yl)-3-(5-(difluoromethoxy)-4-((6-oxo-5-(trifluoromethyl)-1,6-dihydropyridazin-4-yl)amino)pentyl)-6-fluoroquinazolin-4(3H)-one], 14.2 nM. For `Nc1nc(-c2cc3ncn(CCC[C@H](COC(F)F)Nc4cn[nH]c(=O)c4C(F)(F)F)c(=O)c3cc2F)ncc1C(F)(F)F` [Example 385, (R)-7-(4-amino-5-(trifluoromethyl)pyrimidin-2-yl)-3-(5-(difluoromethoxy)-4-((6-oxo-5-(trifluoromethyl)-1,6-dihydropyridazin-4-yl)amino)pentyl)-6-fluoroquinazolin-4(3H)-one] the value was 13.3 nM; for `O=c1[nH]ncc(N[C@H]2CCC[C@@H](Cn3ccc4cc(-c5ncc(C(F)(F)F)cn5)c(F)c(F)c4c3=O)C2)c1C(F)(F)F` [Example 232, 7,8-difluoro-2-(((1R,3S)-3-((6-oxo-5-(trifluoromethyl)-1,6-dihydropyridazin-4-yl)amino)cyclohexyl)methyl)-6-(5-(trifluoromethyl)pyrimidin-2-yl)isoquinolin-1(2H)-one], 1.67 nM; for `C[C@@H](CCCn1ccc2cc(-c3nc(N)c4c(n3)C(C)(C)OC4)c(F)cc2c1=O)Nc1cn[nH]c(=O)c1C(F)(F)F` [Example 358, (S)-6-(4-amino-7,7-dimethyl-5,7-dihydrofuro[3,4-d]pyrimidin-2-yl)-7-fluoro-2-(4-((6-oxo-5-(trifluoromethyl)-1,6-dihydropyridazin-4-yl)amino)pentyl)isoquinolin-1(2H)-one], 1330 nM. As to `O=c1[nH]ncc(N[C@H](CCCn2cnc3cc(C4=CCCCO4)c(F)cc3c2=O)COC(F)F)c1C(F)(F)F` [Example 398, (R)-3-(5-(difluoromethoxy)-4-((6-oxo-5-(trifluoromethyl)-1,6-dihydropyridazin-4-yl)amino)pentyl)-7-(3,4-dihydro-2H-pyran-6-yl)-6-fluoroquinazolin-4(3H)-one], the EC50 turned out to be 424 nM. For `O=c1[nH]ncc(N[C@H](CCCn2ccc3cc(-c4ncc(C(F)(F)F)cn4)c(F)cc3c2=O)c2nnc(C(F)F)o2)c1C(F)(F)F` [Example 477, 2-[(4R)-4-[5-(difluoromethyl)-1,3,4-oxadiazol-2-yl]-4-[[6-oxo-5-(trifluoromethyl)-1H-pyridazin-4-yl]amino]butyl]-7-fluoro-6-[5-(trifluoromethyl)pyrimidin-2-yl]isoquinolin-1-one] the value was 18.4 nM. In the case of `Nc1nc(-c2cc3ccn(CCC[C@H](COC(F)F)Nc4cn[nH]c(=O)c4C(F)(F)F)c(=O)c3cc2F)cnc1C(F)(F)F` [Example 416, (R)-6-(6-amino-5-(trifluoromethyl)pyrazin-2-yl)-2-(5-(difluoromethoxy)-4-((6-oxo-5-(trifluoromethyl)-1,6-dihydropyridazin-4-yl)amino)pentyl)-7-fluoroisoquinolin-1(2H)-one], the concentration giving a half-maximal response (EC50) is 6.78 nM. As for `Nc1nc(-c2cc3ccn(C[C@@H]4CCC[C@H](Nc5cn[nH]c(=O)c5C(F)(F)F)C4)c(=O)c3c(F)c2F)ncc1Cl` [Example 243, 6-(4-amino-5-chloropyrimidin-2-yl)-7,8-difluoro-2-(((1R,3S)-3-((6-oxo-5-(trifluoromethyl)-1,6-dihydropyridazin-4-yl)amino)cyclohexyl)methyl)isoquinolin-1(2H)-one], the figure is 2.98 nM. As for `C[C@@H](CCCn1ccc2cc(-c3nc(N)ncc3C(F)F)c(F)c(F)c2c1=O)Nc1cn[nH]c(=O)c1C(F)(F)F` [Example 114, 6-[2-amino-5-(difluoromethyl)pyrimidin-4-yl]-7,8-difluoro-2-[(4S)-4-[[6-oxo-5-(trifluoromethyl)-1H-pyridazin-4-yl]amino]pentyl]isoquinolin-1-one], the figure is 852 nM; as for `C[C@@H](CCCn1ccc2cc(-c3ncc(S(C)(=O)=O)cn3)c(F)cc2c1=O)Nc1cn[nH]c(=O)c1C(F)(F)F` [Example 84, (S)-7-fluoro-6-(5-(methylsulfonyl)pyrimidin-2-yl)-2-(4-((6-oxo-5-(trifluoromethyl)-1,6-dihydropyridazin-4-yl)amino)pentyl)isoquinolin-1(2H)-one], 263 nM. As for `[2H]C([2H])([2H])Oc1cnc(-c2cc3ccn(CCC[C@H](C)Nc4cn[nH]c(=O)c4C(F)(F)F)c(=O)c3cc2F)nc1N` [Example 196, 6-[4-amino-5-(trideuteriomethoxy)pyrimidin-2-yl]-7-fluoro-2-[(4S)-4-[[6-oxo-5-(trifluoromethyl)-1H-pyridazin-4-yl]amino]pentyl]isoquinolin-1-one], the figure is 6.13 nM; as for `[2H]C([2H])([2H])OC[C@@H](CCCn1cnc2cc(-c3ncc(C(F)(F)F)c(N)n3)c(F)cc2c1=O)Nc1cn[nH]c(=O)c1C(F)(F)F` [Example 432], 12.7 nM.

For the origin of these results see patent US12459922B2 (Gilead Sciences, Inc., priority 2022, dated 2025).
